For one assay, the system named is MYB mRNA. Briefly: RT-qPCR splicing assay, MYB canonical junction (CJ) and alternative junction (AJ) mRNA. Type of assay: cell-based, human. Particulars: Homo sapiens; for AC50: increase in MYB alternative junction (AJ) mRNA, read-out: MYB AJ AC50. The essentials: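 A673 cells (normalized to PPIA) or K562 cells (normalized to GAPDH or GUSB) were treated 24 h at 37 °C with an 11-point 3-fold dilution series, top 10 uM, DMSO ≤0.25%. Cell lysates went to one-step RT-qPCR measuring canonical- and alternative-junction MYB or HTT transcripts.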

For the next assay, the system named is HTT. The assay can be described thus: HiBiT protein abundance assay, HTT HiBiT K562 cell line. Type of assay: cell-based, human. Particulars: HiBiT K562 cell line, 24 hours, top dose 10 μM; read-out: Effect on protein abundance, HTT (IC50 category). The essentials: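 K562 knock-in lines with endogenous HiBiT-tagged target, 10,000 cells/well in IMDM + FBS, treated 24 h at 37° C with 10-point 3-fold dilutions (top 10 μM final; DMSO ≤0.25%). Lytic Nano-Glo HiBiT luminescence normalized to untagged K562 baseline and DMSO controls; IC50 = concentration giving 50% abundance via four-parameter fit.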

The mark [1] stands for this setting: Table 5 panel, canonical junction qPCR, compound concentration having 50% response in CJ decrease, read-out: MYB IC50 (decrease in CJ mRNA levels).
The mark [2] stands for this setting: decrease in MYB canonical junction (CJ) mRNA, RT-qPCR, read-out: MYB CJ IC50.

Where two headings read alike, the source gives them in different places.

Usually IC50 stands for the concentration at which inhibition is half-maximal. In general, AC50 refers to the concentration at which the activity in the assay is half-maximal. As for `Cn1cc2cc(-c3cc(F)c4c(=O)n(C5CCNC6(CC6)C5)ccc4c3)c(O)cc2n1` (stereo not shown) [Compound 414, 2-{4-azaspiro[2.5]octan-7-yl}-8-fluoro-6-(6-hydroxy-2-methylindazol-5-yl)isoquinolin-1-one], the 50% inhibitory concentration (IC50) in the assay on MYB mRNA (setting [1]), in the assay on MYB mRNA (setting [2]) and in the assay with HTT was 1 to 10 µM throughout. In addition, the AC50 in the assay on MYB mRNA (RT-qPCR) fell in the range of 1 to 10 µM.
Take `Cc1cc(-c2cc(F)c3c(=O)n(C4CCNC5(CC5)C4)ccc3c2)cc2cn(C)nc12` (stereo not shown) [Compound 415, 2-{4-azaspiro[2.5]octan-7-yl}-6-(2,7-dimethylindazol-5-yl)-8-fluoroisoquinolin-1-one]: the IC50 in the assay on MYB mRNA (setting [1]), in the assay on MYB mRNA (setting [2]) and in the assay on HTT was less than 0.1 µM in each case. In addition, the AC50 in the assay with MYB mRNA (RT-qPCR) was less than 0.1 µM.
Regarding `Cc1cn2cc(-c3cc(F)c4c(=O)n(C5CCNC6(CC6)C5)ccc4c3)cc(C)c2n1` (stereo not shown) [Compound 416, 2-{4-azaspiro[2.5]octan-7-yl}-6-{2,8-dimethylimidazo[1,2-a]pyridin-6-yl}-8-fluoroisoquinolin-1-one], the IC50 in the assay with MYB mRNA (setting [1]), in the assay on MYB mRNA (setting [2]) and in the assay on HTT was less than 0.1 µM in each case. In the assay with MYB mRNA (RT-qPCR), the AC50 was less than 0.1 µM.
For `Cc1nc2c(F)cc(-c3cc(F)c4c(=O)n(C5CCNC6(CC6)C5)ccc4c3)cc2o1` (stereo not shown) [Compound 417, 2-{4-azaspiro[2.5]octan-7-yl}-8-fluoro-6-(4-fluoro-2-methyl-1,3-benzoxazol-6-yl)isoquinolin-1-one], the IC50 in the assay on MYB mRNA (setting [1]), with MYB mRNA (setting [2]) and in the assay on HTT was less than 0.1 µM throughout. Also, the concentration at half-maximal activity (AC50) with MYB mRNA (RT-qPCR) is less than 0.1 µM.
As to `Cc1nc2c(C)cc(-c3cc(F)c4c(=O)n(C5CCNC6(CC6)C5)ccc4c3)cc2o1` (stereo not shown) [Compound 418, 2-{4-azaspiro[2.5]octan-7-yl}-6-(2,4-dimethyl-1,3-benzoxazol-6-yl)-8-fluoroisoquinolin-1-one], the 50% inhibitory concentration (IC50) in the assay with MYB mRNA (setting [1]), with MYB mRNA (setting [2]) and in the assay on HTT was less than 0.1 µM each time. Besides, in the assay on MYB mRNA (RT-qPCR), the AC50 is less than 0.1 µM.
As for `Cc1c(O)c(-c2cc(F)c3c(=O)n(C4CCNC5(CC5)C4)ccc3c2)cc2cn(C)nc12` (stereo not shown) [Compound 419, 2-{4-azaspiro[2.5]octan-7-yl}-8-fluoro-6-(6-hydroxy-2,7-dimethylindazol-5-yl)isoquinolin-1-one], the figures for the 50% inhibitory concentration (IC50) in the assay with MYB mRNA (setting [1]), in the assay with MYB mRNA (setting [2]) and in the assay on HTT were 1 to 10 µM, 1 to 10 µM and more than 10 µM, respectively. Also, the half-maximal activity concentration (AC50) in the assay with MYB mRNA (RT-qPCR) fell in the range of 1 to 10 µM.
With `Cn1cc2cc(-c3cc(F)c4c(=O)n(C5CCNC6(CC6)C5)ccc4c3)c(O)c(F)c2n1` (stereo not shown) [Compound 420, 2-{4-azaspiro[2.5]octan-7-yl}-8-fluoro-6-(7-fluoro-6-hydroxy-2-methylindazol-5-yl)isoquinolin-1-one], the half-maximal inhibitory concentration (IC50) in the assay with MYB mRNA (setting [1]) lay in the range of 0.1 to 1 µM; with MYB mRNA (setting [2]), 0.1 to 1 µM; with HTT, 1 to 10 µM. Further, the AC50 in the assay with MYB mRNA (RT-qPCR) was 0.1 to 1 µM.
On to `Cc1cn2cc(-c3cc(F)c4c(=O)n(C5CCNC6(CC6)C5)ccc4c3)c(O)c(C)c2n1` (stereo not shown) [Compound 421, 2-{4-azaspiro[2.5]octan-7-yl}-8-fluoro-6-{7-hydroxy-2,8-dimethylimidazo[1,2-a]pyridin-6-yl}isoquinolin-1-one], for which the IC50 in the assay on MYB mRNA (setting [1]), with MYB mRNA (setting [2]) and with HTT was more than 10 µM in each case. For the same compound, in the assay on MYB mRNA (RT-qPCR), the AC50 is more than 10 µM.
As for `Cc1cn2nc(-c3cc(C)c4c(=O)n(C5CCNC6(CC6)C5)ncc4c3)cc(C)c2n1` (stereo not shown) [Compound 423, 6-(2,8-dimethylimidazo[1,2-b]pyridazin-6-yl)-8-methyl-2-(4-azaspiro[2.5]octan-7-yl)phthalazin-1(2H)-one], the concentration for half-maximal inhibition (IC50) in the assay with MYB mRNA (setting [1]), with MYB mRNA (setting [2]) and in the assay with HTT was less than 0.1 µM in each case. Also, the AC50 with MYB mRNA (RT-qPCR) was less than 0.1 µM.
Take `Cc1cn2cc(-c3cc(F)c4c(=O)n(C5CCNC6(CC6)C5)ccc4c3)ncc2n1` (stereo not shown) [Compound 428, 8-fluoro-6-(2-methylimidazo[1,2-a]pyrazin-6-yl)-2-(4-azaspiro[2.5]octan-7-yl)isoquinolin-1(2H)-one]: the IC50 in the assay with MYB mRNA (setting [1]), in the assay with MYB mRNA (setting [2]) and in the assay with HTT was 0.1 to 1 µM throughout. In addition, the AC50 with MYB mRNA (RT-qPCR) lay within 0.1 to 1 µM.

Source of the values: patent US20250332173A1, “COMPOUNDS AND METHODS FOR MODULATING NUCLEIC ACID SPLICING” (REMIX THERAPEUTICS INC., priority 2021, published 2025).
